Read-outs that look alike come from different tables or passages of the source. Each block holds one compound with its values, some of them ahead of it.
Columns and labels:
[1] = not given; remark: listed apart in the source
[2] = biological target: T1, calcium-sensing receptor (CaR) (Homo sapiens, UniProt P41180); conditions: studies have shown; cited from earlier work
T1 sequence (P41180 20-1078): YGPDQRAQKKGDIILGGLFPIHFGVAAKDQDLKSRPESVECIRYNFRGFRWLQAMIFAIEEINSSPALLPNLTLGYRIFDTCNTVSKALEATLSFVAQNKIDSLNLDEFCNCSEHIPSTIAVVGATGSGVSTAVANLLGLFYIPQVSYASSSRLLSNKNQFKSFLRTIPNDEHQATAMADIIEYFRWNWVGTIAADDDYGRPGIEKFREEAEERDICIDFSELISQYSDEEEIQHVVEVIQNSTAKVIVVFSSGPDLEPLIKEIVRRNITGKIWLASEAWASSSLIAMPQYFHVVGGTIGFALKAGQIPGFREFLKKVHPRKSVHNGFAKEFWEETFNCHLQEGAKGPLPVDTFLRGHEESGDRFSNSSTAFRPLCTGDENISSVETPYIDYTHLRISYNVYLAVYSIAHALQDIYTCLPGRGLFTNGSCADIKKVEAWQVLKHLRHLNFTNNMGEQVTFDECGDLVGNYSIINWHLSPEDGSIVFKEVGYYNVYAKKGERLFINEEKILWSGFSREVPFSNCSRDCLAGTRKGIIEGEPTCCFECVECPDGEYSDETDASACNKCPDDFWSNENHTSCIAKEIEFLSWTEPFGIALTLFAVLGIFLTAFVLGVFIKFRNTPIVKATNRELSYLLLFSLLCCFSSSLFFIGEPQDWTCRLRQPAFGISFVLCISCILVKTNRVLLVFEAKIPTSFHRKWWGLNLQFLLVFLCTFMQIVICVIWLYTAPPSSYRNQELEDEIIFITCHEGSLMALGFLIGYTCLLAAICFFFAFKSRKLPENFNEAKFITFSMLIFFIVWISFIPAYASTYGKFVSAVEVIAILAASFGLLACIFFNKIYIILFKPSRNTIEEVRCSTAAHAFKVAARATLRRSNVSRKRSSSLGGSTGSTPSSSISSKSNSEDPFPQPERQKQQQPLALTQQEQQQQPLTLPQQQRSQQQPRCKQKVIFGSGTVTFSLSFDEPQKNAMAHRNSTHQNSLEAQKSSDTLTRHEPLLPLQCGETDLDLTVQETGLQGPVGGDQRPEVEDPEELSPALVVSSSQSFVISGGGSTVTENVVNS

Compound: [Cl-].[Cl-].[Sr+2] [Chloride, strontium chloride, reference compound]
AUC (rat, in vivo, po): 7300 mg·min/L
time to maximum serum strontium concentration (rats, single oral gavage): approximately 2 hours

Compound: O=C([O-])/C=C/C(=O)[O-].[Sr+2] [Fumerate, strontium fumarate]
SOLUBILITY AT 40° C. pH 7.5 [1]: 977 mg/L
SOLUBILITY AT ROOM TEMPERATURE (22-24° C.) pH 7.5 [1]: 1215 mg/L

AUC (female, Wistar HanTac:WH (GALAS), rat, in vivo, po): 10100 mg·min/L
rate of metabolism (second peak of model fit) (rat, in vivo): rests longer in the serum
Compound: N[C@@H](CCC(=O)[O-])C(=O)[O-].O.O.O.O.O.O.[Sr+2] [L-glutamate, strontium glutamate hexahydrate]

Compound: O=C([O-])/C=C\C(=O)[O-].[Sr+2] [Maleate, strontium maleate]
SOLUBILITY AT 40° C. pH 7.5 [1]: 1457 mg/L
SOLUBILITY AT ROOM TEMPERATURE (22-24° C.) pH 7.5 [1]: 1680 mg/L

SOLUBILITY AT 40° C. pH 7.5 [1]: 1970 mg/L
SOLUBILITY AT ROOM TEMPERATURE (22-24° C.) pH 7.5 [1]: 890 mg/L
time to maximum serum strontium concentration (rat, in vivo, po): approximately 2 hours
Compound: N#Cc1c(N(CC(=O)[O-])CC(=O)[O-])sc(C(=O)[O-])c1CC(=O)[O-].[Sr+2].[Sr+2] [Ranelate, distrontium salt of 2-[N,N-di(carboxymethyl)amino]-3-cyano-4-carboxymethylthiophene-5-carboxylic acid, reference compound]

Compound: [Sr+2] [strontium]
activity at the calcium-sensing receptor (CaR) [2]: full agonist

Compound: strontium alpha-ketoglutarate [α-ketogluterate]
rate of metabolism (second peak of model fit) (rats, FIGS. 9A-B): quickly metabolized

From patent publication US8541471B2, “Water-soluble strontium salts for use in treatment of cartilage and/or bone conditions” (Osteologix A/S, priority 2003, dated 2013)
